Test results published in ChEMBL document CHEMBL5214990, “Novel Aryl Alkamidazole Derivatives as Multifunctional Antifungal Inhibitors: Design, Synthesis, and Biological Evaluation” (J Med Chem, 2022).
In brackets after ≈: the same amount, converted by molar mass.

What was measured:
Assay type in all cases: functional
Candida albicans = assay: Antifungal activity against Candida albicans ATCC SC5314 assessed as inhibition of fungal growth measured after 72 hrs by CLSI based liquid medium dilution method
Candida tropicalis = assay: Antifungal activity against Candida tropicalis ATCC 1369 assessed as inhibition of fungal growth measured after 72 hrs by CLSI based liquid medium dilution method
Aspergillus fumigatus = assay: Antifungal activity against Aspergillus fumigatus KM8001 assessed as inhibition of fungal growth measured after 72 hrs by CLSI based liquid medium dilution method
Cryptococcus neoformans = assay: Antifungal activity against Cryptococcus neoformans assessed as inhibition of fungal growth measured after 72 hrs by CLSI based liquid medium dilution method
Pichia kudriavzevii = assay: Antifungal activity against Candida krusei ATCC 6258 assessed as inhibition of fungal growth measured after 72 hrs by CLSI based liquid medium dilution method

Q: Which results are given for C[C@H](C(=O)OC(Cn1cnnn1)c1ccc(F)cc1)c1ccc(CC2CCCC2=O)cc1 (stereo not given in full)?
A: MIC50 (Candida albicans): 1 mg/L (≈ 2.29 µM); MIC50 (Candida tropicalis): 2 mg/L (≈ 4.58 µM); MIC50 (Aspergillus fumigatus): > 8 mg/L; MIC50 (Cryptococcus neoformans): 2 mg/L (≈ 4.58 µM); MIC50 (Pichia kudriavzevii): 0.5 mg/L (≈ 1.15 µM)

Q: How did the MIC50 (Candida albicans) turn out when C[C@H](C(=O)N(C)CC(O)(Cn1ccnc1)c1ccc(Cl)cc1)c1cccc(C(=O)c2ccccc2)c1 (stereo not given in full) was run?
A: Its MIC50 is 0.5 mg/L (≈ 0.996 µM).

Q: And the MIC50 (Candida tropicalis)?
A: The MIC50 was 1 mg/L (≈ 1.99 µM).

Q: What about the MIC50 (Aspergillus fumigatus) of the same compound?
A: Its MIC50 is 4 mg/L (≈ 7.97 µM).

Q: And the MIC50 (Cryptococcus neoformans)?
A: Its MIC50 is 0.5 mg/L (≈ 0.996 µM).

Q: What about the MIC50 (Pichia kudriavzevii) of the same compound?
A: The MIC50 was 0.5 mg/L (≈ 0.996 µM).

Q: C[C@H](C(=O)N(C)CC(O)(Cn1ccnc1)c1ccc(Cl)cc1Cl)c1ccc(-c2ccccc2)c(F)c1 (stereo not given in full) was tested. Which MIC50 (Candida albicans) did it give?
A: Its MIC50 is 0.25 mg/L (≈ 0.475 µM).

Q: What about the MIC50 (Candida tropicalis) of the same compound?
A: The MIC50 was 0.25 mg/L (≈ 0.475 µM).

Q: And the MIC50 (Aspergillus fumigatus)?
A: Its MIC50 is 4 mg/L (≈ 7.6 µM).

Q: What about the MIC50 (Cryptococcus neoformans) of the same compound?
A: Its MIC50 is 0.5 mg/L (≈ 0.95 µM).

Q: And the MIC50 (Pichia kudriavzevii)?
A: The MIC50 was 0.5 mg/L (≈ 0.95 µM).

Q: Which results are given for COc1ccc2cc([C@H](C)C(=O)N(C)CC(O)(Cn3ccnc3)c3ccc(F)cc3)ccc2c1 (stereo not given in full)?
A: MIC50 (Candida albicans): 0.5 mg/L (≈ 1.08 µM); MIC50 (Candida tropicalis): 0.25 mg/L (≈ 0.542 µM); MIC50 (Aspergillus fumigatus): > 8 mg/L; MIC50 (Cryptococcus neoformans): 1 mg/L (≈ 2.17 µM); MIC50 (Pichia kudriavzevii): 1 mg/L (≈ 2.17 µM)

Q: COc1ccc2cc([C@H](C)C(=O)N[C@H](Cn3cncn3)c3ccccc3)ccc2c1 was tested. Which MIC50 (Candida albicans) did it give?
A: Its MIC50 is 0.25 mg/L (≈ 0.624 µM).

Q: What about the MIC50 (Candida tropicalis) of the same compound?
A: Its MIC50 is 0.25 mg/L (≈ 0.624 µM).

Q: What about the MIC50 (Aspergillus fumigatus) of the same compound?
A: Its MIC50 is 4 mg/L (≈ 9.99 µM).

Q: What about the MIC50 (Cryptococcus neoformans) of the same compound?
A: The MIC50 was 1 mg/L (≈ 2.5 µM).

Q: What about the MIC50 (Pichia kudriavzevii) of the same compound?
A: The MIC50 was 0.25 mg/L (≈ 0.624 µM).

Q: How did the MIC50 (Candida albicans) turn out when COc1ccc2cc([C@H](C)C(=O)OC(Cn3cnnn3)c3ccc(Cl)cc3)ccc2c1 (stereo not given in full) was run?
A: The MIC50 was 0.5 mg/L (≈ 1.14 µM).

Q: And the MIC50 (Candida tropicalis)?
A: The MIC50 was 0.5 mg/L (≈ 1.14 µM).

Q: And the MIC50 (Aspergillus fumigatus)?
A: The MIC50 was 4 mg/L (≈ 9.16 µM).

Q: What about the MIC50 (Cryptococcus neoformans) of the same compound?
A: Its MIC50 is 0.5 mg/L (≈ 1.14 µM).

Q: And the MIC50 (Pichia kudriavzevii)?
A: Its MIC50 is 0.25 mg/L (≈ 0.572 µM).

Q: For C[C@H](C(=O)N(C)CC(O)(Cn1ccnc1)c1ccc(F)cc1)c1cccc(C(=O)c2ccccc2)c1 (stereo not given in full), which MIC50 (Candida albicans) is on record?
A: The MIC50 was 0.5 mg/L (≈ 1.03 µM).

Q: What about the MIC50 (Candida tropicalis) of the same compound?
A: Its MIC50 is 0.5 mg/L (≈ 1.03 µM).

Q: And the MIC50 (Aspergillus fumigatus)?
A: The MIC50 was > 8 mg/L.

Q: What about the MIC50 (Cryptococcus neoformans) of the same compound?
A: Its MIC50 is 0.5 mg/L (≈ 1.03 µM).

Q: And the MIC50 (Pichia kudriavzevii)?
A: Its MIC50 is 1 mg/L (≈ 2.06 µM).

Q: Which results are given for COc1ccc2cc([C@H](C)C(=O)N[C@H](Cn3ccnc3)c3ccccc3)ccc2c1?
A: MIC50 (Candida albicans): 1 mg/L (≈ 2.5 µM); MIC50 (Candida tropicalis): 0.5 mg/L (≈ 1.25 µM); MIC50 (Aspergillus fumigatus): > 8 mg/L; MIC50 (Cryptococcus neoformans): 1 mg/L (≈ 2.5 µM); MIC50 (Pichia kudriavzevii): 0.5 mg/L (≈ 1.25 µM)

Q: What does the source list for C[C@H](C(=O)N[C@H](Cn1cncn1)c1ccccc1)c1cccc(C(=O)c2ccccc2)c1?
A: MIC50 (Candida albicans): 1 mg/L (≈ 2.36 µM); MIC50 (Candida tropicalis): 1 mg/L (≈ 2.36 µM); MIC50 (Aspergillus fumigatus): 2 mg/L (≈ 4.71 µM); MIC50 (Cryptococcus neoformans): 2 mg/L (≈ 4.71 µM); MIC50 (Pichia kudriavzevii): 0.5 mg/L (≈ 1.18 µM)

Q: How did the MIC50 (Candida albicans) turn out when C[C@H](C(=O)OC(Cn1cnnn1)c1ccc(Cl)cc1)c1cccc(C(=O)c2ccccc2)c1 (stereo not given in full) was run?
A: The MIC50 was 0.5 mg/L (≈ 1.08 µM).

Q: And the MIC50 (Candida tropicalis)?
A: Its MIC50 is 2 mg/L (≈ 4.34 µM).

Q: What about the MIC50 (Aspergillus fumigatus) of the same compound?
A: The MIC50 was > 8 mg/L.

Q: And the MIC50 (Cryptococcus neoformans)?
A: Its MIC50 is 0.5 mg/L (≈ 1.08 µM).

Q: What about the MIC50 (Pichia kudriavzevii) of the same compound?
A: Its MIC50 is 1 mg/L (≈ 2.17 µM).

Q: How did the MIC50 (Candida albicans) turn out when C[C@H](C(=O)OC(Cn1cnnn1)c1ccc(Cl)cc1)c1ccc(-c2ccccc2)c(F)c1 (stereo not given in full) was run?
A: The MIC50 was 1 mg/L (≈ 2.22 µM).

Q: And the MIC50 (Candida tropicalis)?
A: Its MIC50 is 1 mg/L (≈ 2.22 µM).

Q: What about the MIC50 (Aspergillus fumigatus) of the same compound?
A: Its MIC50 is 2 mg/L (≈ 4.44 µM).

Q: What about the MIC50 (Cryptococcus neoformans) of the same compound?
A: The MIC50 was 0.5 mg/L (≈ 1.11 µM).

Q: What about the MIC50 (Pichia kudriavzevii) of the same compound?
A: Its MIC50 is 0.25 mg/L (≈ 0.554 µM).

Q: C[C@H](C(=O)OC(Cn1cnnn1)c1ccc(Cl)cc1)c1ccc(CC2CCCC2=O)cc1 (stereo not given in full) was tested. Which MIC50 (Candida albicans) did it give?
A: The MIC50 was 2 mg/L (≈ 4.42 µM).

Q: What about the MIC50 (Candida tropicalis) of the same compound?
A: The MIC50 was 1 mg/L (≈ 2.21 µM).

Q: And the MIC50 (Aspergillus fumigatus)?
A: The MIC50 was > 8 mg/L.

Q: And the MIC50 (Cryptococcus neoformans)?
A: Its MIC50 is 4 mg/L (≈ 8.83 µM).

Q: And the MIC50 (Pichia kudriavzevii)?
A: Its MIC50 is 2 mg/L (≈ 4.42 µM).

Q: With C[C@H](C(=O)N[C@H](Cn1ccnc1)c1ccccc1)c1ccc(-c2ccccc2)c(F)c1 as the compound, how does the MIC50 (Candida albicans) read?
A: The MIC50 was 0.5 mg/L (≈ 1.21 µM).

Q: What about the MIC50 (Candida tropicalis) of the same compound?
A: Its MIC50 is 0.5 mg/L (≈ 1.21 µM).

Q: What about the MIC50 (Aspergillus fumigatus) of the same compound?
A: The MIC50 was 4 mg/L (≈ 9.67 µM).

Q: What about the MIC50 (Cryptococcus neoformans) of the same compound?
A: Its MIC50 is 0.5 mg/L (≈ 1.21 µM).

Q: And the MIC50 (Pichia kudriavzevii)?
A: Its MIC50 is 0.25 mg/L (≈ 0.605 µM).

Q: For COc1ccc2cc([C@H](C)C(=O)N(C)CC(O)(Cn3ccnc3)c3ccc(Cl)cc3)ccc2c1 (stereo not given in full), which MIC50 (Candida albicans) is on record?
A: Its MIC50 is 0.5 mg/L (≈ 1.05 µM).

Q: What about the MIC50 (Candida tropicalis) of the same compound?
A: The MIC50 was 1 mg/L (≈ 2.09 µM).

Q: What about the MIC50 (Aspergillus fumigatus) of the same compound?
A: The MIC50 was > 8 mg/L.

Q: And the MIC50 (Cryptococcus neoformans)?
A: The MIC50 was 2 mg/L (≈ 4.18 µM).

Q: What about the MIC50 (Pichia kudriavzevii) of the same compound?
A: Its MIC50 is 1 mg/L (≈ 2.09 µM).

Q: Which MIC50 (Candida albicans) does the source give for C[C@H](C(=O)OC(Cn1cnnn1)c1ccc(F)cc1)c1cccc(C(=O)c2ccccc2)c1 (stereo not given in full) here?
A: The MIC50 was 0.5 mg/L (≈ 1.12 µM).

Q: What about the MIC50 (Candida tropicalis) of the same compound?
A: Its MIC50 is 1 mg/L (≈ 2.25 µM).

Q: What about the MIC50 (Aspergillus fumigatus) of the same compound?
A: Its MIC50 is > 8 mg/L.

Q: What about the MIC50 (Cryptococcus neoformans) of the same compound?
A: Its MIC50 is 0.5 mg/L (≈ 1.12 µM).

Q: And the MIC50 (Pichia kudriavzevii)?
A: Its MIC50 is 0.5 mg/L (≈ 1.12 µM).

Q: Which results are given for C[C@H](C(=O)OC(Cn1ccnc1)c1ccc(F)cc1)c1cccc(C(=O)c2ccccc2)c1 (stereo not given in full)?
A: MIC50 (Candida albicans): 0.5 mg/L (≈ 1.13 µM); MIC50 (Candida tropicalis): 2 mg/L (≈ 4.52 µM); MIC50 (Aspergillus fumigatus): 4 mg/L (≈ 9.04 µM); MIC50 (Cryptococcus neoformans): 0.5 mg/L (≈ 1.13 µM); MIC50 (Pichia kudriavzevii): 0.5 mg/L (≈ 1.13 µM)

Q: How did the MIC50 (Candida albicans) turn out when C[C@H](C(=O)N(C)CC(O)(Cn1ccnc1)c1ccc(F)cc1)c1ccc(-c2ccccc2)c(F)c1 (stereo not given in full) was run?
A: The MIC50 was 0.25 mg/L (≈ 0.526 µM).

Q: And the MIC50 (Candida tropicalis)?
A: The MIC50 was 0.25 mg/L (≈ 0.526 µM).

Q: What about the MIC50 (Aspergillus fumigatus) of the same compound?
A: Its MIC50 is 4 mg/L (≈ 8.41 µM).

Q: And the MIC50 (Cryptococcus neoformans)?
A: The MIC50 was 0.5 mg/L (≈ 1.05 µM).

Q: And the MIC50 (Pichia kudriavzevii)?
A: Its MIC50 is 0.25 mg/L (≈ 0.526 µM).

Q: Which results are given for COc1ccc2cc([C@H](C)C(=O)OC(Cn3ccnc3)c3ccc(F)cc3)ccc2c1 (stereo not given in full)?
A: MIC50 (Candida albicans): 0.5 mg/L (≈ 1.19 µM); MIC50 (Candida tropicalis): 0.5 mg/L (≈ 1.19 µM); MIC50 (Aspergillus fumigatus): 4 mg/L (≈ 9.56 µM); MIC50 (Cryptococcus neoformans): 1 mg/L (≈ 2.39 µM); MIC50 (Pichia kudriavzevii): 2 mg/L (≈ 4.78 µM)

Q: With C[C@H](C(=O)OC(Cn1cnnn1)c1ccc(F)cc1)c1ccc(-c2ccccc2)c(F)c1 (stereo not given in full) as the compound, how does the MIC50 (Candida albicans) read?
A: Its MIC50 is 0.5 mg/L (≈ 1.15 µM).

Q: What about the MIC50 (Candida tropicalis) of the same compound?
A: Its MIC50 is 0.25 mg/L (≈ 0.575 µM).

Q: And the MIC50 (Aspergillus fumigatus)?
A: Its MIC50 is 4 mg/L (≈ 9.21 µM).

Q: What about the MIC50 (Cryptococcus neoformans) of the same compound?
A: Its MIC50 is 1 mg/L (≈ 2.3 µM).

Q: What about the MIC50 (Pichia kudriavzevii) of the same compound?
A: Its MIC50 is 0.5 mg/L (≈ 1.15 µM).
